Results as given in ChEMBL document CHEMBL6092167, “Phosphorylation as an Effective Tool to Improve Stability and Reduce Toxicity of Antimicrobial Peptides” (J Med Chem, 2024).
Values after ≈ are worked out from the molar mass of the structure shown. Non-standard residues stand in square brackets, D forms with d. Residues, ends and D or L forms follow the SMILES beside them. Bip = N[C@@H](Cc1ccc(-c2ccccc2)cc1)C(=O)O; pY = N[C@@H](Cc1ccc(OP(=O)(O)O)cc1)C(=O)O; pT = C[C@@H](OP(=O)(O)O)[C@H](N)C(=O)O; 2Nal = N[C@@H](Cc1ccc2ccccc2c1)C(=O)O

How the values were obtained:
Escherichia coli [1] = assay: Antibacterial activity against Escherichia coli 850 incubated for 18 to 24 hrs by broth microdilution method; type: functional; details: time 18-24 hrs
Staphylococcus aureus [2] = assay: Antibacterial activity against Staphylococcus aureus 794 incubated for 18 to 24 hrs by broth microdilution method; type: functional; details: time 18-24 hrs
Escherichia coli [3] = assay: Antibacterial activity against Escherichia coli 780 incubated for 18 to 24 hrs by broth microdilution method; type: functional; details: time 18-24 hrs
Escherichia coli [4] = assay: Antibacterial activity against Escherichia coli ATCC 25922 incubated for 18 to 24 hrs by broth microdilution method; type: functional; details: time 18-24 hrs
Pseudomonas aeruginosa [5] = assay: Antibacterial activity against Pseudomonas aeruginosa 119 incubated for 18 to 24 hrs by broth microdilution method; type: functional; details: time 18-24 hrs
Staphylococcus aureus [6] = assay: Antibacterial activity against methicillin resistant Staphylococcus aureus 48 incubated for 18 to 24 hrs by broth microdilution method; type: functional; details: time 18-24 hrs
Bacillus subtilis = assay: Antibacterial activity against Bacillus subtilis ATCC 23857 incubated for 18 to 24 hrs by broth microdilution method; type: functional; details: time 18-24 hrs
[7] = Cytotoxicity against HEK293T cells incubated for 1 hr by fluorescence based microplate reader assay; type: toxicity, cell-based, HEK-293T; details: human
Staphylococcus aureus [8] = assay: Antibacterial activity against methicillin resistant Staphylococcus aureus ATCC 33591 incubated for 18 to 24 hrs by broth microdilution method; type: functional; details: time 18-24 hrs
[9] = Hemolytic activity in mouse erythrocyte incubated for 1 hr by microplate reader assay; type: toxicity, cell-based
Acinetobacter baumannii = assay: Antibacterial activity against Acinetobacter baumannii ATCC 19606 incubated for 18 to 24 hrs by broth microdilution method; type: functional; details: time 18-24 hrs
Klebsiella pneumoniae = assay: Antibacterial activity against Klebsiella pneumoniae ATCC 700603 incubated for 18 to 24 hrs by broth microdilution method; type: functional; details: time 18-24 hrs
Pseudomonas aeruginosa [10] = assay: Antibacterial activity against Pseudomonas aeruginosa ATCC 27853 incubated for 18 to 24 hrs by broth microdilution method; type: functional; details: time 18-24 hrs
Staphylococcus aureus [11] = assay: Antibacterial activity against Staphylococcus aureus ATCC 25923 incubated for 18 to 24 hrs by broth microdilution method; type: functional; details: time 18-24 hrs

SMILES | MIC (Escherichia coli [1]) | MIC (Staphylococcus aureus [2]) | MIC (Escherichia coli [3]) | MIC (Escherichia coli [4]) | MIC (Pseudomonas aeruginosa [5]) | MIC (Staphylococcus aureus [6]) | MIC (Bacillus subtilis) | CC50 at 1 h [7] | MIC (Staphylococcus aureus [8]) | MHC [9] | MIC (Acinetobacter baumannii) | MIC (Klebsiella pneumoniae) | MIC (Pseudomonas aeruginosa [10]) | MIC (Staphylococcus aureus [11])
CC(C)C[C@H](NC(=O)[C@H](CC(C)C)NC(=O)[C@@H](NC(=O)[C@H](CCCCN)NC(=O)[C@H](Cc1ccc(-c2ccccc2)cc1)NC(=O)[C@H](CCCNC(=N)N)NC(=O)[C@H](CCCCN)NC(=O)[C@H](CC(C)C)NC(=O)[C@H](CC(C)C)NC(=O)CN)[C@@H](C)O)C(N)=O (H-GLLKR[Bip]KTLL-NH2) | 8 µM (≈ 10.1 µg/mL) | 8 µM (≈ 10.1 µg/mL) | 8 µM (≈ 10.1 µg/mL) | 8 µM (≈ 10.1 µg/mL) | 16 µM (≈ 20.2 µg/mL) | 8 µM (≈ 10.1 µg/mL) | 4 µM (≈ 5.05 µg/mL) | 127 µM | 8 µM (≈ 10.1 µg/mL) | 145.56 µM | 16 µM (≈ 20.2 µg/mL) | 8 µM (≈ 10.1 µg/mL) | 4 µM (≈ 5.05 µg/mL) | 16 µM (≈ 20.2 µg/mL)
CC(C)C[C@H](NC(=O)[C@H](CC(C)C)NC(=O)[C@H](Cc1ccc(O)cc1)NC(=O)[C@H](CCCCN)NC(=O)[C@H](Cc1ccc(-c2ccccc2)cc1)NC(=O)[C@H](CCCNC(=N)N)NC(=O)[C@H](CCCCN)NC(=O)[C@H](CC(C)C)NC(=O)[C@H](CC(C)C)NC(=O)CN)C(N)=O (H-GLLKR[Bip]KYLL-NH2) | 8 µM (≈ 10.6 µg/mL) | 8 µM (≈ 10.6 µg/mL) | 8 µM (≈ 10.6 µg/mL) | 8 µM (≈ 10.6 µg/mL) | 8 µM (≈ 10.6 µg/mL) | 8 µM (≈ 10.6 µg/mL) | 4 µM (≈ 5.3 µg/mL) | 82.3 µM | 8 µM (≈ 10.6 µg/mL) | 99.53 µM | 16 µM (≈ 21.2 µg/mL) | 8 µM (≈ 10.6 µg/mL) | 8 µM (≈ 10.6 µg/mL) | 8 µM (≈ 10.6 µg/mL)
CC(C)C[C@H](NC(=O)[C@H](CC(C)C)NC(=O)[C@@H](NC(=O)[C@H](CCCCN)NC(=O)[C@H](Cc1ccc(-c2ccccc2)cc1)NC(=O)[C@H](CCCNC(=N)N)NC(=O)[C@H](CCCCN)NC(=O)[C@H](CC(C)C)NC(=O)[C@H](CC(C)C)NC(=O)CN)[C@@H](C)OP(=O)(O)O)C(N)=O (H-GLLKR[Bip]K[pT]LL-NH2) | 64 µM (≈ 86 µg/mL) | 32 µM (≈ 43 µg/mL) | 32 µM (≈ 43 µg/mL) | 64 µM (≈ 86 µg/mL) | 128 µM (≈ 172 µg/mL) | 128 µM (≈ 172 µg/mL) | 32 µM (≈ 43 µg/mL) | 131 µM | 128 µM (≈ 172 µg/mL) | > 256 µM | 64 µM (≈ 86 µg/mL) | 128 µM (≈ 172 µg/mL) | 64 µM (≈ 86 µg/mL) | 128 µM (≈ 172 µg/mL)
CC(C)C[C@H](NC(=O)[C@H](CC(C)C)NC(=O)[C@H](Cc1ccc(OP(=O)(O)O)cc1)NC(=O)[C@H](CCCCN)NC(=O)[C@H](Cc1ccc(-c2ccccc2)cc1)NC(=O)[C@H](CCCNC(=N)N)NC(=O)[C@H](CCCCN)NC(=O)[C@H](CC(C)C)NC(=O)[C@H](CC(C)C)NC(=O)CN)C(N)=O (H-GLLKR[Bip]K[pY]LL-NH2) | 16 µM (≈ 22.5 µg/mL) | 8 µM (≈ 11.2 µg/mL) | 16 µM (≈ 22.5 µg/mL) | 8 µM (≈ 11.2 µg/mL) | 32 µM (≈ 45 µg/mL) | 8 µM (≈ 11.2 µg/mL) | 8 µM (≈ 11.2 µg/mL) | 110 µM | 8 µM (≈ 11.2 µg/mL) | 131.69 µM | 8 µM (≈ 11.2 µg/mL) | 16 µM (≈ 22.5 µg/mL) | 32 µM (≈ 45 µg/mL) | 16 µM (≈ 22.5 µg/mL)
CC(C)C[C@H](NC(=O)[C@H](CC(C)C)NC(=O)[C@H](Cc1ccc(OP(=O)(O)O)cc1)NC(=O)[C@H](CCCCN)NC(=O)[C@H](CC(C)C)NC(=O)[C@H](CCCNC(=N)N)NC(=O)[C@H](CCCCN)NC(=O)[C@H](Cc1c[nH]c2ccccc12)NC(=O)[C@H](CC(C)C)NC(=O)CN)C(N)=O (H-GLWKRLK[pY]LL-NH2) | 16 µM (≈ 21.9 µg/mL) | 8 µM (≈ 10.9 µg/mL) | 8 µM (≈ 10.9 µg/mL) | 8 µM (≈ 10.9 µg/mL) | 64 µM (≈ 87.6 µg/mL) | 16 µM (≈ 21.9 µg/mL) | 8 µM (≈ 10.9 µg/mL) | 148 µM | 16 µM (≈ 21.9 µg/mL) | 268.04 µM | 8 µM (≈ 10.9 µg/mL) | 16 µM (≈ 21.9 µg/mL) | 32 µM (≈ 43.8 µg/mL) | 16 µM (≈ 21.9 µg/mL)
CC(C)C[C@H](NC(=O)[C@H](CC(C)C)NC(=O)[C@@H](NC(=O)[C@H](CCCCN)NC(=O)[C@H](CC(C)C)NC(=O)[C@H](CCCNC(=N)N)NC(=O)[C@H](CCCCN)NC(=O)[C@H](Cc1ccc2ccccc2c1)NC(=O)[C@H](CC(C)C)NC(=O)CN)[C@@H](C)O)C(N)=O (H-GL[2Nal]KRLKTLL-NH2) | 8 µM (≈ 9.9 µg/mL) | 8 µM (≈ 9.9 µg/mL) | 8 µM (≈ 9.9 µg/mL) | 8 µM (≈ 9.9 µg/mL) | 8 µM (≈ 9.9 µg/mL) | 8 µM (≈ 9.9 µg/mL) | 8 µM (≈ 9.9 µg/mL) | 111 µM | 8 µM (≈ 9.9 µg/mL) | 154.3 µM | 8 µM (≈ 9.9 µg/mL) | 8 µM (≈ 9.9 µg/mL) | 8 µM (≈ 9.9 µg/mL) | 8 µM (≈ 9.9 µg/mL)
CC(C)C[C@H](NC(=O)[C@H](CC(C)C)NC(=O)[C@H](Cc1ccc(O)cc1)NC(=O)[C@H](CCCCN)NC(=O)[C@H](CC(C)C)NC(=O)[C@H](CCCNC(=N)N)NC(=O)[C@H](CCCCN)NC(=O)[C@H](Cc1ccc2ccccc2c1)NC(=O)[C@H](CC(C)C)NC(=O)CN)C(N)=O (H-GL[2Nal]KRLKYLL-NH2) | 8 µM (≈ 10.4 µg/mL) | 8 µM (≈ 10.4 µg/mL) | 8 µM (≈ 10.4 µg/mL) | 8 µM (≈ 10.4 µg/mL) | 8 µM (≈ 10.4 µg/mL) | 8 µM (≈ 10.4 µg/mL) | 4 µM (≈ 5.2 µg/mL) | 61.5 µM | 8 µM (≈ 10.4 µg/mL) | 78.09 µM | 8 µM (≈ 10.4 µg/mL) | 8 µM (≈ 10.4 µg/mL) | 8 µM (≈ 10.4 µg/mL) | 8 µM (≈ 10.4 µg/mL)
CC(C)C[C@H](NC(=O)[C@H](CC(C)C)NC(=O)[C@@H](NC(=O)[C@H](CCCCN)NC(=O)[C@H](CC(C)C)NC(=O)[C@H](CCCNC(=N)N)NC(=O)[C@H](CCCCN)NC(=O)[C@H](Cc1ccc2ccccc2c1)NC(=O)[C@H](CC(C)C)NC(=O)CN)[C@@H](C)OP(=O)(O)O)C(N)=O (H-GL[2Nal]KRLK[pT]LL-NH2) | 64 µM (≈ 84.3 µg/mL) | 64 µM (≈ 84.3 µg/mL) | 32 µM (≈ 42.2 µg/mL) | 64 µM (≈ 84.3 µg/mL) | 64 µM (≈ 84.3 µg/mL) | 128 µM (≈ 169 µg/mL) | 32 µM (≈ 42.2 µg/mL) | 131 µM | 128 µM (≈ 169 µg/mL) | > 256 µM | 64 µM (≈ 84.3 µg/mL) | 128 µM (≈ 169 µg/mL) | 32 µM (≈ 42.2 µg/mL) | 128 µM (≈ 169 µg/mL)
CC(C)C[C@H](NC(=O)[C@H](CC(C)C)NC(=O)[C@H](Cc1ccc(OP(=O)(O)O)cc1)NC(=O)[C@H](CCCCN)NC(=O)[C@H](CC(C)C)NC(=O)[C@H](CCCNC(=N)N)NC(=O)[C@H](CCCCN)NC(=O)[C@H](Cc1ccc2ccccc2c1)NC(=O)[C@H](CC(C)C)NC(=O)CN)C(N)=O (H-GL[2Nal]KRLK[pY]LL-NH2) | 8 µM (≈ 11 µg/mL) | 8 µM (≈ 11 µg/mL) | 16 µM (≈ 22.1 µg/mL) | 8 µM (≈ 11 µg/mL) | 32 µM (≈ 44.1 µg/mL) | 8 µM (≈ 11 µg/mL) | 8 µM (≈ 11 µg/mL) | 128 µM | 8 µM (≈ 11 µg/mL) | 164.57 µM | 8 µM (≈ 11 µg/mL) | 8 µM (≈ 11 µg/mL) | 16 µM (≈ 22.1 µg/mL) | 8 µM (≈ 11 µg/mL)
CC(C)C[C@H](NC(=O)[C@H](CC(C)C)NC(=O)[C@@H](NC(=O)[C@H](CCCCN)NC(=O)[C@H](CC(C)C)NC(=O)[C@H](CCCNC(=N)N)NC(=O)[C@H](CCCCN)NC(=O)[C@H](Cc1ccc(-c2ccccc2)cc1)NC(=O)[C@H](CC(C)C)NC(=O)CN)[C@@H](C)O)C(N)=O (H-GL[Bip]KRLKTLL-NH2) | 8 µM (≈ 10.1 µg/mL) | 8 µM (≈ 10.1 µg/mL) | 8 µM (≈ 10.1 µg/mL) | 8 µM (≈ 10.1 µg/mL) | 8 µM (≈ 10.1 µg/mL) | 8 µM (≈ 10.1 µg/mL) | 8 µM (≈ 10.1 µg/mL) | 76.4 µM | 8 µM (≈ 10.1 µg/mL) | 47.48 µM | 8 µM (≈ 10.1 µg/mL) | 8 µM (≈ 10.1 µg/mL) | 8 µM (≈ 10.1 µg/mL) | 8 µM (≈ 10.1 µg/mL)
